Data on 21 compounds can be found in patent US11767322B2 (BRISTOL-MYERS SQUIBB COMPANY, priority 2020, dated 2023).

Each structure is given as a SMILES string. Like-named read-outs stand apart in the source and are kept apart here. Some results are limits rather than exact numbers.

For assay [1], the target named is GST-tagged PIK3Cδ in complex with PIK3R1 (Homo sapiens, UniProt O00329). The assay is described as follows: PI3Kδ HTRF binding assay. As to conditions: read-out: PIK3CD IC50. (In general: In TR-FRET formats the signal depends on donor and acceptor labels being close together.)
The subject of assay [2] is MLKL phosphorylation in HT29-L23 human colorectal adenocarcinoma cells. Briefly: MLKL phosphorylation high-content assay. The class given is cell-based.
Assay [3] addresses T1, His-GST-TVMV-hRIPK1(1-324) (Homo sapiens, UniProt Q13546).
T1 construct: The coding region of human RIPK1(1-324) flanked by NdeI site at 5′ end; made in house; host or cells: Spodoptera frugiperda Sf9 insect cells (baculovirus, Bac-to-Bac)
T1 sequence (Q13546 1-324): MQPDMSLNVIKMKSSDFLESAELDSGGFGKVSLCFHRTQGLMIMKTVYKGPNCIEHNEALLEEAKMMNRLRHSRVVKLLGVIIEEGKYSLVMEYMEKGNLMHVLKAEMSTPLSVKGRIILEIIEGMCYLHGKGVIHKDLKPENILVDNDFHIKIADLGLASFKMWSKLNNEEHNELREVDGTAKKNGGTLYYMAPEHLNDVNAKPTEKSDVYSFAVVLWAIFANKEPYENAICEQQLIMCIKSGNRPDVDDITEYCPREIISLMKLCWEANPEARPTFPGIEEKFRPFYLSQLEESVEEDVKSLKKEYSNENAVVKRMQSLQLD
Briefly: biochemical. It is filed as binding.

Where [4] appears, read: HTRF probe displacement, 1 h at rt.
Setting [5] is: read-out: pMLKL IC50, HT29-L23 cells, necroptosis induced with TNFα, SMAC mimetic and Z-VAD, 6 h, maximal inhibition defined by Nec1s.
The mark [6] stands for this setting: HTRF probe displacement, 1 h at rt, read-out: RIPK1 IC50.
Where [7] appears, read: Homo sapiens, 6 h, read-out: pMLKL IC50, HT29-L23 cells, necroptosis induced with TNFα, SMAC mimetic and Z-VAD, 6 h, maximal inhibition defined by Nec1s.
[8] abbreviates: Table 22, compounds of the present invention, read-out: RPIK1 IC50.
The mark [9] stands for this setting: Homo sapiens, 6 h, HT29-L23 cells, necroptosis induced with TNFα, SMAC mimetic and Z-VAD, 6 h, maximal inhibition defined by Nec1s, read-out: pMLKL IC50.
Setting [10] is: Homo sapiens, Table 22, compounds of the present invention, read-out: pMLKL IC50.

Sequence of GST-tagged PIK3Cδ in complex with PIK3R1 (O00329 whole entry): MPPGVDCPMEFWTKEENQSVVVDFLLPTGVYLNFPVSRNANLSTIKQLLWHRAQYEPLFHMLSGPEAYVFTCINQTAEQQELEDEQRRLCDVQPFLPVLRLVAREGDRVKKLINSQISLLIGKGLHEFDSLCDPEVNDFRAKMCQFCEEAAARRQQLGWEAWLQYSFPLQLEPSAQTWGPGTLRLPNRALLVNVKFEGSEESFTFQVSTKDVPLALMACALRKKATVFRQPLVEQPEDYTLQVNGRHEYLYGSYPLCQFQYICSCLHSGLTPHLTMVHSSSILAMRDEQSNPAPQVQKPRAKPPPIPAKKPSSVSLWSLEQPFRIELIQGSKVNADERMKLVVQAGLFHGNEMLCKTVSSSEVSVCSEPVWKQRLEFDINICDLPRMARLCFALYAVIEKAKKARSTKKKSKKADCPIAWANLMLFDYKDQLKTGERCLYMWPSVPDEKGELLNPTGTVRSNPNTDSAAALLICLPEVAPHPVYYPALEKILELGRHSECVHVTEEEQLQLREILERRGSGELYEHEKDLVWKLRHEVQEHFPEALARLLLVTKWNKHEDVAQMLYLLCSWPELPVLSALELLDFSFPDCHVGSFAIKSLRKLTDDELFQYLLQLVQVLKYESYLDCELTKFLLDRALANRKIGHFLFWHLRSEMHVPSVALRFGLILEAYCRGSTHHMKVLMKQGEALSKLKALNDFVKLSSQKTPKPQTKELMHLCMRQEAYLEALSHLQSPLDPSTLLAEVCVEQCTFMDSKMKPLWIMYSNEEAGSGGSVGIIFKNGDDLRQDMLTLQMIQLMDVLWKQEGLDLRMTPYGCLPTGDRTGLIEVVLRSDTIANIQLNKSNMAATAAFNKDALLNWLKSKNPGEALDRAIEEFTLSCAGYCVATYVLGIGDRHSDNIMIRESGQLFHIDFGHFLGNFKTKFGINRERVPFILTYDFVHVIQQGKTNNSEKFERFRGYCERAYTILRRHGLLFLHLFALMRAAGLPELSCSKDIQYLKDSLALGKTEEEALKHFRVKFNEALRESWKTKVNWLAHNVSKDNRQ
Sequence of GST-tagged PIK3Cδ in complex with PIK3R1 (P27986 whole entry partner): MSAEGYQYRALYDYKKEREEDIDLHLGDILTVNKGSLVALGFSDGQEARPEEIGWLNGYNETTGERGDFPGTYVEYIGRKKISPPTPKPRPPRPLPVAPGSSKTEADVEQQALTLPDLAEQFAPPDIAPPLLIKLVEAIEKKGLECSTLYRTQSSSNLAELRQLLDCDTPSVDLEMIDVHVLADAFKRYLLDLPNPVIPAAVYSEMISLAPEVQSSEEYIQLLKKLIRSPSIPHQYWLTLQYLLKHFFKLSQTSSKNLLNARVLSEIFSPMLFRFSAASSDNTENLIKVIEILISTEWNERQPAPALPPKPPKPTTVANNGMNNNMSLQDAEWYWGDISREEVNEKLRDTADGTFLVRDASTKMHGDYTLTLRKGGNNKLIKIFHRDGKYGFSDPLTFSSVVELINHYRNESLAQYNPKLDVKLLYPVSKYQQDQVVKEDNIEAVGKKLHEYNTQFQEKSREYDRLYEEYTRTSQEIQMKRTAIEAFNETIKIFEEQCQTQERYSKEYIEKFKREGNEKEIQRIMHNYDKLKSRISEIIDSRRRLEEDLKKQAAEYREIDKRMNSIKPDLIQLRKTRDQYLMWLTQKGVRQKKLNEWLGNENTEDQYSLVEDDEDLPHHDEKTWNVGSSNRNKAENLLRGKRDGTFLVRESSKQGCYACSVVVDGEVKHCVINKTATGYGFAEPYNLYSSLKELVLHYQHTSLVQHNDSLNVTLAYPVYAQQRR

For `Cc1ccc(-c2ccn3nc(N)nc3c2)c(F)c1C(=O)NCCC(O)c1ccccc1F` (single isomer, unassigned) [Example 70, 3-(2-amino-[1,2,4]triazolo[1,5-a]pyridin-7-yl)-2-fluoro-N-(3-(2-fluorophenyl)-3-hydroxypropyl)-6-methylbenzamide], the IC50 was > 15 µM in assay [1] (setting [4]), 8.1 nM in assay [2] (setting [5]) and 11 nM in assay [3] (setting [6]).
Regarding `Nc1nc2cc(-c3ccc(Cl)c(C(=O)NCCC4(c5ccc(F)cc5)CC4)c3F)ccn2n1` [Example 84, 3-(2-amino-[1,2,4]triazolo[1,5-a]pyridin-7-yl)-6-chloro-2-fluoro-N-(2-(1-(4-fluorophenyl)cyclopropyl)ethyl)benzamide], the IC50 in assay [1] (setting [4]) was > 15 µM; in assay [2] (setting [7]) it was 1.1 nM; in assay [3] (setting [6]), 1.6 nM.
On to `COc1ccc(-c2ccn3nc(N)nc3c2)c(F)c1C(=O)NCC[C@H](O)c1ccc(Cl)cc1` [Example 147, (S)-3-(2-amino-[1,2,4]triazolo[1,5-a]pyridin-7-yl)-N-(3-(4-chlorophenyl)-3-hydroxypropyl)-2-fluoro-6-methoxybenzamide], for which the IC50 in assay [1] worked out at 13 µM; in assay [2] (setting [7]), 21 nM; in assay [2] (Homo sapiens, read-out: pMLKL IC50, Table 22, compounds of the present invention) it was 21 nM; in assay [3] (setting [6]) it was 9.4 nM; in assay [3] (setting [8]), 9.4 nM.
On to `COc1c(-c2ccc(C)c(C(=O)NCC[C@H](O)c3ccc(Cl)cc3)c2F)ccn2nc(N)nc12` (single isomer, unassigned; enantiomer 2) [Example 136], for which the half-maximal inhibitory concentration (IC50) in assay [1] was > 15 µM; in assay [3] (setting [6]), 5.9 nM.
Turning to `[2H]C([2H])(CC([2H])(O)c1ccc(Cl)cc1)NC(=O)c1c(C)ccc(-c2ccn3nc(N)nc3c2)c1F` (single isomer, unassigned) [Example 54, 3-(2-amino-[1,2,4]triazolo[1,5-a]pyridin-7-yl)-N-(3-(4-chlorophenyl)-3-hydroxypropyl-1,1,3-d3)-2-fluoro-6-methylbenzamide], the concentration for half-maximal inhibition (IC50) is > 15 µM in assay [1] (setting [4]), 1 nM in assay [2] (setting [5]) and 2.7 nM in assay [3] (setting [6]).
On the same counts, the results for `Cc1ccc(-c2ccn3nc(N)nc3c2)c(F)c1C(=O)NC(C)CC(O)c1ccc(F)cc1` (single isomer, unassigned) [Example 39, 3-(2-amino-[1,2,4]triazolo[1,5-a]pyridin-7-yl)-2-fluoro-N-(4-(4-fluorophenyl)-4-hydroxybutan-2-yl)-6-methylbenzamide] are > 15 µM, 397 nM and 163 nM.
For `CCc1ccc(-c2ccn3nc(N)nc3c2)c(F)c1C(=O)NCC(F)(F)C(O)c1ccc(F)cn1` (single isomer, unassigned) [Example 266, 3-(2-amino-[1,2,4]triazolo[1,5-a]pyridin-7-yl)-N-(2,2-difluoro-3-(5-fluoropyridin-2-yl)-3-hydroxypropyl)-6-ethyl-2-fluorobenzamide], the concentration for half-maximal inhibition (IC50) in assay [1] (setting [4]) is > 15 µM; in assay [2] (setting [7]) it was 2.4 nM; in assay [3] (setting [6]), 13 nM.
Take `CCc1ccc(-c2ccn3nc(N)nc3c2)c(F)c1C(=O)NCC[C@H](O)c1ccc(Cl)cc1` [Example 155, (S)-3-(2-amino-[1,2,4]triazolo[1,5-a]pyridin-7-yl)-N-(3-(4-chlorophenyl)-3-hydroxypropyl)-6-ethyl-2-fluorobenzamide]: the IC50 in assay [1] (setting [4]) was > 15 µM; in assay [2] (setting [7]), 0.6 nM; in assay [3] (setting [6]), 2.7 nM.
Consider `Cc1cc(F)c(-c2ccn3nc(N)nc3c2)cc1C(=O)NCCC(O)c1ccc(Cl)cn1` (single isomer, unassigned) [Example 6, 5-(2-amino-[1,2,4]triazolo[1,5-a]pyridin-7-yl)-N-(3-(5-chloropyridin-2-yl)-3-hydroxypropyl)-4-fluoro-2-methylbenzamide], for which the half-maximal inhibitory concentration (IC50) in assay [1] (setting [4]) was > 15 µM; in assay [2] (setting [5]) it was 2.3 nM; in assay [3] (setting [6]), 5.8 nM.
Taken in the same sequence, the figures for `Cc1ccc(-c2ccn3nc(N)nc3c2)c(F)c1C(=O)NCCC(O)c1ccc(C(F)(F)F)cc1` (single isomer, unassigned) [Example 56, 3-(2-amino-[1,2,4]triazolo[1,5-a]pyridin-7-yl)-2-fluoro-N-(3-hydroxy-3-(4-(trifluoromethyl)phenyl)propyl)-6-methylbenzamide] were > 15 µM, 0.4 nM and 4.5 nM.
`Nc1nc2cc(-c3ccc(Cl)c(C(=O)NC[C@@H](F)[C@@H](O)c4ccc(F)cc4)c3F)ccn2n1` (single isomer, unassigned) [Example 298]: the results for the IC50 in assay [1] (setting [4]), in assay [2] (setting [7]) and in assay [3] (setting [6]) were 8 µM, 0.5 nM and 2.9 nM, respectively.
For `Cc1ccc(-c2ccn3nc(N)nc3c2)c(F)c1C(=O)NC(C)CC(O)c1ccc(F)cc1` (single isomer, unassigned) [Example 36, 3-(2-amino-[1,2,4]triazolo[1,5-a]pyridin-7-yl)-2-fluoro-N-(4-(4-fluorophenyl)-4-hydroxybutan-2-yl)-6-methylbenzamide], the IC50 in assay [1] (setting [4]) was > 15 µM; in assay [2] (setting [5]) it was 2.7 nM; in assay [3] (setting [6]), 4.5 nM.
Taken in the same sequence, the figures for `Nc1nc2cc(-c3ccc(Cl)c(C(=O)NCC(F)(F)C(O)c4cc(F)cc(F)c4)c3F)ccn2n1` (centres unmarked) [Example 189, 3-(2-amino-[1,2,4]triazolo[1,5-a]pyridin-7-yl)-6-chloro-N-(3-(3,5-difluorophenyl)-2,2-difluoro-3-hydroxypropyl)-2-fluorobenzamide] were 5.6 µM, 38 nM and 11 nM.
On the same counts, the results for `Cc1ccc(-c2ccn3nc(N)nc3c2)c(F)c1C(=O)NC(CF)CC(O)c1ccc(F)cc1` (single isomer, unassigned) [Example 25, 3-(2-amino-[1,2,4]triazolo[1,5-a]pyridin-7-yl)-2-fluoro-N-(1-fluoro-4-(4-fluorophenyl)-4-hydroxybutan-2-yl)-6-methylbenzamide] are > 15 µM, 4.1 nM and 3.6 nM.
As to `Cc1ccc(-c2ccn3nc(N)nc3c2)cc1C(=O)NCC[C@@H](O)c1ccc(Cl)cc1` [Example 159, (R)-5-(2-amino-[1,2,4]triazolo[1,5-a]pyridin-7-yl)-N-(3-(4-chlorophenyl)-3-hydroxypropyl)-2-methylbenzamide], the IC50 is > 15 µM in assay [1] (setting [4]); 1.9 nM in assay [2] (setting [9]); 1.9 nM in assay [2] (setting [10]); 2.5 nM in assay [3] (setting [6]); 2.5 nM in assay [3] (setting [8]).
With `Cc1ccc(-c2ccn3nc(N)nc3c2)c(F)c1C(=O)NCCC1(c2ccc(F)cc2)CC1` [Example 16, 3-(2-amino-[1,2,4]triazolo[1,5-a]pyridin-7-yl)-2-fluoro-N-(2-(1-(4-fluorophenyl)cyclopropyl)ethyl)-6-methylbenzamide], the figures for the 50% inhibitory concentration (IC50) in assay [1] (setting [4]), in assay [2] (setting [7]) and in assay [3] (setting [6]) were > 15 µM, 0.4 nM and 0.7 nM, respectively.
On to `Nc1nc2cc(-c3ccc(Cl)c(C(=O)NCC(F)(F)C(O)c4cnc(Cl)c(Cl)c4)c3F)ccn2n1` (single isomer, unassigned) [Example 271], for which the IC50 in assay [1] (setting [4]) was 11 µM; in assay [3] (RIPK1 IC50), 1.5 nM.
For the compound `[2H]C([2H])(CC([2H])(O)c1ccc(Cl)cc1)NC(=O)c1c(F)ccc(-c2ccn3nc(N)nc3c2)c1F` (single isomer, unassigned) [Example 251, 3-(2-amino-[1,2,4]triazolo[1,5-a]pyridin-7-yl)-N-(3-(4-chlorophenyl)-3-hydroxypropyl-1,1,3-d3)-2,6-difluorobenzamide], the half-inhibitory concentration (IC50) in assay [1] (setting [4]) is > 15 µM; in assay [3] (setting [6]) it was 16 nM.
As for `Cc1ccc(-c2ccn3nc(N)nc3c2)c(F)c1C(=O)NCCC(O)c1cccc(F)c1` (single isomer, unassigned) [Example 63, 3-(2-amino-[1,2,4]triazolo[1,5-a]pyridin-7-yl)-2-fluoro-N-(3-(3-fluorophenyl)-3-hydroxypropyl)-6-methylbenzamide], the IC50 was 13 µM in assay [1] (setting [4]) and 1.9 nM in assay [2] (setting [9]).
In the case of `CC(CCNC(=O)c1cc(-c2ccn3nc(N)nc3c2)ccc1Cl)c1ccccc1` (centres unmarked) [Example 92, 5-(2-amino-[1,2,4]triazolo[1,5-a]pyridin-7-yl)-2-chloro-N-(3-phenylbutyl)benzamide], the IC50 in assay [1] (setting [4]) is 5.2 µM; in assay [2] (setting [9]), 11 nM; in assay [2] (setting [10]), 11 nM.
`CC(O)(c1ccc(F)cc1)C(F)(F)CNC(=O)c1c(Cl)ccc(-c2ccn3nc(N)nc3c2)c1F` (single isomer, unassigned) [Example 89, 3-(2-amino-[1,2,4]triazolo[1,5-a]pyridin-7-yl)-6-chloro-N-(2,2-difluoro-3-(4-fluorophenyl)-3-hydroxybutyl)-2-fluorobenzamide]: the IC50 is > 15 µM in assay [1] (setting [4]) and 7.7 nM in assay [3] (setting [6]).

The term IC50 denotes the concentration needed to halve the response being measured.
